Measurements: US10548829B2, “Oral care compositions and methods of use” (priority 2016, dated 2020)
Like-named read-outs stand apart in the source and are kept apart here.

System: mixed culture containing Actinomyces viscosus, Lactobacillus casei, Streptococcus oralis, Fusobacterium nucleatum and Veilonella parvula
Experiment: Growth inhibition (OD610), mixed chemostat culture
Assay type: cell-based, A. viscosus, L. casei, S. oralis, F. nucleatum, V. parvula
Details: for % Inhibition: Mixed species incubated in 37° C., 0.0875 mM
Protocol: Single species of Streptococcus gordonii (S. gordonii, S.g) strain V288 (ATCC #35105), Streptococcus sobrinus (S. sobrinus, S.$) strain SL1[CCM 6070, CNCTC 9/89] (ATCC #33478), or Aggregatibacter actinomycetemcomitans were analyzed. Also, a mixed culture containing Actinomyces viscosus (A. viscosus, A.v) strain (ATCC, #43146), Lactobacillus casei (L. casei, L.c) strain (ATCC #334), Streptococcus oralis (S. oralis, S. o) strain (ATCC #35037), Fusobacterium nucleatum (F. nucleatum, F. n) strain (ATCC #10953), and Veilonella parvula (V. parvula, V. p) strain (ATCC #17745) was also analyzed for growth inhibition/toxicity activity. Bacteria were cultured overnight in approximately 20 ml of BHI broth (BD, cat #237500) or maintained in a specialized complex modified BHI II medium in a continuous culture chemostat at 37° C. respectively. The following day, the OD610 were determined and solutions diluted to an OD610 of 0.2 or 0.1 respectively for the assay.
Triclosan (positive control) was prepared as a 10% stock in 100% EtOH and 3 fold serial dilutions were performed in 100% EtOH. An appropriate amount of the diluted samples was then transferred into a 96 well clear plate such that the resulting final concentration of the test samples ranged from either a 2 mM or 4 mM (highest concentration) to 0.0078 mM or 0.0156 mM (lowest concentration respectively) in 2% DMSO in 100 μl media per well. Triclosan (TCN) ranged from 0.01% to 1.67e-6% in 1% EtOH. For Zinc acetate, in order to mimic the 2:1 molar ratio (ligand:Zinc) in the Naringin:Zinc complex, the final concentration ranged from 0.7 mM to 0.0027 mM for samples with 2 mM as the highest concentration and 1.33 mM to […] for samples with 4 mM as the highest concentration in 2% DMSO. Next, 100 μl of bacterial culture at OD610 0.2 were introduced to the wells with the test samples. The wells were thoroughly mixed and incubated at 37° C. overnight. The plates were read using an Envision plate reader (PerkinElmer, Waltham, Mass.) at 610 nm.
The IC50 for the complex, Product 5, was determined for Streptococcus gordonii (S. gordonii), Streptococcus sobrinus (S. sobrinus), Aggregatibacter actinomycetemcomitans (A. actinomycetemcomitans), and also for the mixed bacterial culture. […] Triclosan (TCN) was included as a positive control for bacterial inhibition.
Antimicrobial characterization was also performed on mixed culture solutions having at least five microbial species present. A mixed culture containing Actinomyces viscosus (A. viscosus, A.v) (ATCC, #43146), Lactobacillus casei (L. casei, L.c) (ATCC #334), Streptococcus oralis (S. oralis, S.o) (ATCC #35037), Fusobacterium nucleatum (F. nucleatum, F.n) (ATCC #10953) and Veilonella parvula (V. parvula, V.p) (ATCC #17745) was maintained in a specialized complex medium (Modified BHI II Medium) in a continuous culture chemostat at 37° C. Approximately 10 ml of the culture was removed and the OD610 was determined. The assay was performed using cultures at two concentrations; 0.03 and 0.1 at OD610. […] Triclosan (positive control) was prepared as a 10% stock in 100% EtOH and 3 fold serial dilutions were performed in 100% EtOH. […] For Zinc Acetate, in order to mimic the 2:1 ratio (ligand:Zinc) composition as in the complex, the final concentration range from 0.7 mM to 0.0027 mM in 2% DMSO was used instead.
A 100 μl of bacterial culture at chosen OD610 (0.03 or 0.1) was introduced into the wells with the test samples. The wells were thoroughly mixed and plates incubated overnight in a 37° C. incubator with or without 5% CO2. After approximately 12-13 hours of treatment, the plate was read using Envision plate reader (Serial #1040984), absorbance at 610 nm. The % inhibition relative to control was determined as described for previously described antimicrobial protocols, supra.

For CC(=O)[O-].CC(=O)[O-].[Zn+2] [Zinc Acetate alone, Zinc (II) Acetate], the IC50 (Mixed Species (aerobic)) was “Ambiguous”, the IC50 (Mixed Species (anaerobic), read-out: IC50) was 250 µM and the “% Inhibition” value (5% CO2 (anaerobic)) was −1.46 ± 0.0%. For the same compound, the “% Inhibition” value (Air (aerobic)) was 18.07 ± 2.65%.
